Data as given in patent US20240008482A1, “METHOD OF IN[…] VIRUS USING A GLUT[…] COMPOSITION” (priority 2021, published 2024).

Legend:
MNV = format: cell-based, Murine Norovirus (MNV)
poliovirus type 1 = format: cell-based
adenovirus type 5 = format: cell-based
HCoV-229E = conditions: 2% glutaraldehyde; cited from earlier work
SARS-CoV (Isolate FFM-1) = conditions: cited from earlier work
SARS-CoV (Hanoi strain) = conditions: cited from earlier work

Compound	reduction of viral titre achieved (MNV)	reduction of viral titre achieved (poliovirus type 1)	time after which a 4 log10 reduction is achieved (adenovirus type 5)	effectiveness against the virus (HCoV-229E)	time to inactivate the virus (SARS-CoV (Isolate FFM-1))	time to inactivate the virus (SARS-CoV (Hanoi strain))
C=O [formaldehyde]	< 4 log10	< 4 log10	30 minutes			
O=CCCCC=O [glutaraldehyde]				effective	2 min	5 min
